# Experimental data published in PubChem BioAssay (NCI).
# Where “and” joins values, the source holds several entries; their conditions need not be identical. Equal values may be shown once.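 Following 48 hours of exposure in 96-well plates, responses at five concentrations were used to interpolate endpoints linearly. GI50 marks 50% less growth. TGI marks complete inhibition of growth.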
# Key:
# Assay in all cases: NCI tumour cell line growth inhibition, 48 h
# [1] = test system: CAKI-1 renal
# [2] = test system: COLO 205 colon
# [3] = test system: UO-31 renal
# [4] = test system: UACC-62 melanoma
# [5] = test system: HT29 colon
# [6] = test system: OVCAR-3 ovarian
# [7] = test system: OVCAR-5 ovarian
# [8] = test system: DMS 273 small cell lung
# [9] = test system: K-562 leukemia
# [10] = test system: ACHN renal
SMILES,GI50 [1],TGI [1],GI50 [2],TGI [2],GI50 [3],TGI [3],GI50 [4],TGI [4],TGI [5],GI50 [6],TGI [6],GI50 [7],TGI [7],GI50 [8],TGI [8],GI50 [9],TGI [9],TGI [10],GI50 [5],GI50 [10]
Cc1[nH]c(=O)[nH]c(=O)c1N(CCF)CCCl,137 µM,634 µM and 711 µM,337 µM,930 µM and 805 µM,723 µM and 245 µM,1940 µM and 1110 µM,173 µM and 360 µM,419 µM and 1040 µM and 673 µM,1370 µM and 1230 µM,147 µM and 530 µM,356 µM and 1350 µM and 972 µM,329 µM and 400 µM,676 µM and 976 µM and 1200 µM,113 µM and 122 µM and 189 µM,330 µM and 470 µM and 560 µM,403 µM and 215 µM,757 µM and 1350 µM and 1110 µM,1220 µM,,
CN(C)c1ccc(-c2cc(=O)c3ccccc3[nH]2)cc1,,,,> 100 µM,,> 100 µM,,,> 100 µM,,> 100 µM,,,,> 100 µM,,> 100 µM,> 100 µM,,
CCN(CC)CCCN(c1cc(OC)cc2nccnc12)S(=O)(=O)c1ccc(C)cc1,,> 100 µM,,> 100 µM,,> 100 µM,,> 100 µM,> 100 µM,,> 100 µM,,> 100 µM,,> 100 µM,,> 100 µM,> 100 µM,,
CN(C)CCCCN1CCc2c(n(C)c3ccccc23)C1=O,,> 73.4 µM and 65.3 µM,,61.7 µM and 33 µM,,> 76.3 µM and 46.7 µM,,54.3 µM and 31.8 µM,63.4 µM and 37.9 µM,,> 100 µM,54.1 µM and 24.2 µM,> 78.6 µM and 67.3 µM,,> 100 µM,,51.9 µM and > 59.4 µM,> 100 µM,,
COc1cccc(N2C(=O)c3c(c4[nH]c5ccccc5c4c4ccc(C(C)(C)C)cc34)C2=O)c1,,> 100 µM,,> 100 µM,,> 100 µM,,> 100 µM,,,> 100 µM,,> 100 µM,,> 100 µM,,> 100 µM,> 100 µM,,
COc1nc2c(OC)cccc2c(OC)c1C=O,,,,> 100 µM,,> 100 µM,,> 100 µM,> 100 µM,,> 100 µM,,,,> 100 µM,,> 100 µM,> 100 µM,,
CC(C)(C)NNC(=O)/C(=C/c1ccc(Oc2ccc(Cl)c(Cl)c2)cc1)NC(=O)c1ccccc1,,> 100 µM,,36.8 µM,,> 100 µM,,> 100 µM,> 100 µM,,> 100 µM,,> 100 µM,,58.3 µM,,> 100 µM,> 100 µM,,
O=C(CCN1CCN(c2cccc(Cl)c2)CC1)N1CCc2c([nH]c3ccccc23)C1c1cccnc1 (centres undefined),,14.3 µM,4.83 µM,15.6 µM,4.7 µM,16.2 µM,,,16.4 µM,7.67 µM,8.77 µM and 20.1 µM,5.75 µM,23.3 µM,6.6 µM,19.1 µM,3.99 µM,18.6 µM,21.6 µM,4.13 µM,6.34 µM
O=P(c1ccccc1)(c1ccccc1)C1CC=C(c2ccccc2)C2(CCCC2)C1 (centres undefined),,> 100 µM,,56.7 µM,,75.3 µM,,> 100 µM,> 100 µM,,> 100 µM,,> 100 µM,,> 100 µM,,> 100 µM,,,
O=C1NC(=O)C(C(=O)C(=O)Nc2ccc(Br)cc2)C(=O)N1,,,,> 100 µM,,> 100 µM,,> 100 µM,> 100 µM,,> 100 µM,,,,> 100 µM,,> 100 µM,> 100 µM,,
Oc1cccc2c1NC1=C(CCC/C1=C\c1ccccc1)C2,,,,> 100 µM,,> 100 µM,,,> 100 µM,,> 100 µM,,,,> 100 µM,,> 100 µM,> 100 µM,,
COc1ccc2[nH]cc(CCNC(C)=O)c2c1,,> 100 µM,,85.5 µM,,> 100 µM,,> 100 µM,> 100 µM,,> 100 µM,,> 100 µM,,> 100 µM,,> 100 µM,> 100 µM,,
O=S(=O)([O-])[O-].[OH3+].[OH3+].[OH3+].[Ru+2].c1ccccc1,,,> 100 µM,> 100 µM,> 100 µM,> 100 µM,,,> 100 µM,> 100 µM,> 100 µM,> 100 µM,> 100 µM,> 100 µM,> 100 µM,> 100 µM,> 100 µM,> 100 µM,> 100 µM,> 100 µM
Cc1cc2c(cc1C)NC(=O)C(NC(=O)/C=C/c1ccccc1)C=N2 (centres undefined),,> 100 µM,,34.6 µM,,> 100 µM,,> 100 µM,,,55.2 µM,,> 100 µM,,> 100 µM,,62.2 µM,> 100 µM,,
O=C1C=CC(=O)c2c1ccc1c3ccccc3n(-c3ccccn3)c21,,,,30.2 µM,,35.8 µM,,,77.1 µM,,63.8 µM,,> 100 µM,,> 100 µM,,51.1 µM,35.6 µM,,
CCOC(=N)CC(=O)Nc1ccc(Cl)cc1,,> 100 µM,,> 100 µM,,> 100 µM,,> 100 µM,> 100 µM,,> 100 µM,,> 100 µM,,> 100 µM,,> 100 µM,> 100 µM,,
COc1ccc(OCC(=O)O)c2c1CCC(C(C)C)C2=O (centres undefined),,> 100 µM,,> 100 µM,,> 100 µM,,> 100 µM,> 100 µM,,> 100 µM,,> 100 µM,,> 100 µM,,> 100 µM,> 100 µM,,

SMILES,GI50 [1],TGI [1],GI50 [2],TGI [2],GI50 [3],TGI [3],GI50 [4],TGI [4],TGI [5],GI50 [6],TGI [6],GI50 [7],TGI [7],GI50 [8],TGI [8],GI50 [9],TGI [9],TGI [10],GI50 [5],GI50 [10]
COC(=O)c1c[nH]cc1CCc1c[nH]cc1C(=O)OC,,> 100 µM,,> 100 µM,,,,,> 100 µM,,> 100 µM,,> 100 µM,,> 100 µM,,> 100 µM,> 100 µM,,
CCC/C(=N\NC(=S)N1CCN(c2ccccn2)CC1)c1ccccn1,0.0143 µM,> 5.37 µM and 1.92 µM,,,0.0529 µM,3.42 µM and 1.44 µM,,0.242 µM and 1.43 µM,> 5.39 µM,,0.615 µM and 1.14 µM,0.113 µM,> 4.36 µM,,1.37 µM and 1.42 µM,,0.11 µM,> 3.16 µM and 1.24 µM,,0.0156 µM
CC(=O)N(C)OC(=O)CC(=O)c1ccccc1,,> 100 µM,,> 100 µM,,> 100 µM,,> 100 µM,> 100 µM,,> 100 µM,,> 100 µM,,> 100 µM,,> 100 µM,> 100 µM,,
CCN1C(=O)C/C(=C\C(C)=O)Nc2ccccc21,,> 100 µM,,> 100 µM,,> 100 µM,,> 100 µM,> 100 µM,,> 100 µM,,> 100 µM,,> 100 µM,,> 100 µM,> 100 µM,,> 100 µM
CC(C)C(C(=O)O)N(CC1(O)OCC(O)C(O)C1O)N=O (centres undefined),,,,> 100 µM,,> 100 µM,,> 100 µM,> 100 µM,,> 100 µM,,> 100 µM,,> 100 µM,,> 100 µM,> 100 µM,,
CCNc1nnc(CSc2nc(-c3ccccc3)c(-c3ccccc3)[nH]2)s1,,,,51.2 µM,,29.5 µM,,,37.9 µM,,37.1 µM,,39.8 µM,,42.9 µM,,,74.6 µM,,
C/C(=N\NC(=S)N1CCCCCC1)c1nccnc1C,,> 100 µM,,,,,,1.3 µM,> 100 µM,,,,> 100 µM,,11.4 µM,,> 100 µM,3.24 µM,,
C/C(=N\N=C(N)N)C(CN(CC(C)C)CC(C)C)C(=O)Nc1ccc(C)cc1C (centres undefined),,> 100 µM,,> 100 µM,,> 100 µM,,> 100 µM,> 100 µM,,> 100 µM,,> 100 µM,,> 100 µM,,> 100 µM,> 100 µM,,
C=CC1(C)CCC(C(C)C(=O)C(C=C(C)C)OC(C)=O)C12C(=O)Oc1ccccc1C2=O (centres undefined),,,,> 100 µM,,> 100 µM,,> 100 µM,> 100 µM,,> 100 µM,,,,> 100 µM,,> 100 µM,> 100 µM,,
O=C(O)c1ccc(S(=O)(=O)c2ccccc2)c([N+](=O)[O-])c1,,> 100 µM,,> 100 µM,,> 100 µM,,> 100 µM,> 100 µM,,> 100 µM,,> 100 µM,,> 100 µM,,> 100 µM,> 100 µM,,
O=C(Nc1ccc(Cl)c(C(F)(F)F)c1)C(=O)C(C(=O)/C=C/c1ccccc1)C1OC(=O)c2ccccc21 (centres undefined),,> 100 µM,,> 100 µM,,> 100 µM,,> 100 µM,> 100 µM,,> 100 µM,,> 100 µM,,> 100 µM,,> 100 µM,> 100 µM,,
CC(=O)N1CCC2(C=Nc3ccccc32)CC1,,> 100 µM,,> 100 µM,,,,> 100 µM,> 100 µM,,> 100 µM,,> 100 µM,,> 100 µM,,> 100 µM,> 100 µM,,
O=C(O)c1ccc(NC(=O)C2C(=O)C(=O)N(c3ccc(C(=O)O)cc3)C2=O)cc1 (centres undefined),,> 100 µM,,> 100 µM,,> 100 µM,,> 100 µM,> 100 µM,,> 100 µM,,> 100 µM,,> 100 µM,,> 100 µM,> 100 µM,,
CSC(=S)c1ccc(C(=S)SC)cc1,,> 100 µM,,> 100 µM,,> 100 µM,,> 100 µM,> 100 µM,,> 100 µM,,> 100 µM,,> 100 µM,,> 100 µM,,,
COc1ccc(C(=O)Cn2c(C(=O)c3ccc(OC)cc3)nc3ccccc32)cc1,1.94 µM,> 100 µM,2.38 µM,8.21 µM,6.27 µM,> 100 µM,3.47 µM,> 100 µM,> 100 µM,2.03 µM,> 100 µM,> 25.1 µM,> 100 µM,,,0.483 µM,> 100 µM,> 100 µM,0.576 µM,6.58 µM
Cc1ccc(NC(=O)c2[nH]c(=S)nc(N)c2-c2ccccc2C)cc1C,,> 100 µM,,> 100 µM,,> 100 µM,,> 100 µM,> 100 µM,,> 100 µM,,> 100 µM,,> 100 µM,,> 100 µM,> 100 µM,,
CN(C)CCNC(=O)c1ccc(Nc2nc3ccccc3c3occc23)cc1,2.18 µM,4.95 µM,22.6 µM,59.7 µM,3.82 µM,16.2 µM,1.35 µM,2.71 µM,> 100 µM,2.4 µM,7.87 µM,11.8 µM,24.6 µM,,,4.29 µM,17.1 µM,7.56 µM,6.31 µM,2.54 µM
